For orientation: solubility means the dissolved amount per volume that the medium holds. Read a high solubility as much dissolved substance.

≈ marks a conversion by molar mass, not a printed value. Where a name gives a salt, the structure may show the parent alone.

This data set is described as follows: Solubility assay (high throughput 96-well plate, pH 7.4 phosphate buffer). The class given is physicochemical. To be noted: aqueous buffer, thermodynamic from solid, shaken two days at room temperature, UV-UPLC. As to the method:
Solubility measurements were performed using a high throughput 96-well plate based assay. For this, 0.2 mg of sample compound was weighed and added to a sample plate in triplicate and 650 μL of pH 7.4 phosphate buffer was added. The sample plate was capped, allowed to shake on a plate shaker for two days at room temperature, and then centrifuged (2000 rpm, 10 minutes) to settle undissolved solids. Approximately 600 μL of the aqueous supernatant slurry from each sample plate was transferred to a filter plate mounted on top of a receiver plate. Vacuum was applied to collect the filtrate. Appropriate dilutions were made in 50/50 methanol/water and quantification for concentration was performed against known standards by UV-UPLC. Some preferred compounds of the invention have greater solubility than the parent compound (P), N,N′-[(2S)-2-hydroxybicyclo[2.2.2]octane-1,4-diyl]bis[2-(4-chloro-3-fluorophenoxy)acetamide].
As for `CN(C(=O)O[C@H]1CC2(NC(=O)COc3ccc(Cl)c(F)c3)CCC1(NC(=O)COc1ccc(Cl)c(F)c1)CC2)c1ncccc1COP(=O)(O)O` [Compound 116, (2S)-1,4-bis[2-(4-chloro-3-fluorophenoxy)acetamido]bicyclo[2.2.2]octan-2-yl methyl{3-[(phosphonooxy)methyl]pyridin-2-yl}carbamate], the solubility at 2 days came out at 903 µM (≈ 698 µg/mL).

For `CC(=O)O[C@H]1CC2(NC(=O)COc3ccc(Cl)c(F)c3)CCC1(NC(=O)COc1ccc(Cl)c(F)c1)CC2` (single isomer, unassigned) [Compound 100], the solubility at 2 days is below 0.82 µM.

For the compound `O=C(COc1ccc(Cl)c(F)c1)NC12CCC(NC(=O)COc3ccc(Cl)c(F)c3)(CC1)[C@@H](OC(=O)OCCOP(=O)(O)O)C2` [Compound 121, (2S)-1,4-bis[2-(4-chloro-3-fluorophenoxy)acetamido]bicyclo[2.2.2]octan-2-yl 2-(phosphonooxy)ethyl carbonate], the solubility at 2 days is above 1000 µM.

Regarding `CC(C)(COP(=O)(O)O)CC(=O)O[C@H]1CC2(NC(=O)COc3ccc(Cl)c(F)c3)CCC1(NC(=O)COc1ccc(Cl)c(F)c1)CC2` [Compound 122, (2S)-1,4-bis[2-(4-chloro-3-fluorophenoxy)acetamido]bicyclo[2.2.2]octan-2-yl 3,3-dimethyl-4-(phosphonooxy)butanoate], the concentration in solution (solubility at 2 days) came to 317 µM (≈ 229 µg/mL).

In the case of `O=C(COc1ccc(Cl)c(F)c1)NC12CCC(NC(=O)COc3ccc(Cl)c(F)c3)(CC1)[C@@H](OC(=O)CCCOP(=O)(O)O)C2` [Compound 120, (2S)-1,4-bis[2-(4-chloro-3-fluorophenoxy)acetamido]bicyclo[2.2.2]octan-2-yl 4-(phosphonooxy)butanoate], the concentration in solution (solubility at 2 days) came to 812 µM (≈ 565 µg/mL).

In the case of `N[C@@H](CC(=O)O[C@H]1CC2(NC(=O)COc3ccc(Cl)c(F)c3)CCC1(NC(=O)COc1ccc(Cl)c(F)c1)CC2)C(=O)O` [Compound 102, (2S)-2-amino-4-({(2S)-1,4-bis[2-(4-chloro-3-fluorophenoxy)acetamido]bicyclo[2.2.2]octan-2-yl}oxy)-4-oxobutanoic acid], the solubility at 2 days stood at 59 µM (≈ 38 µg/mL).

`O=C(COc1ccc(Cl)c(F)c1)NC12CCC(NC(=O)COc3ccc(Cl)c(F)c3)(CC1)[C@@H](OC(=O)Cc1ccccc1OP(=O)(O)O)C2` [Compound 115]: the solubility at 2 days is 936 µM (≈ 696 µg/mL).

Consider `O=C(COc1ccc(Cl)c(F)c1)NC12CCC(NC(=O)COc3ccc(Cl)c(F)c3)(CC1)[C@@H](OC(=O)CCCCOP(=O)(O)O)C2` [Compound 127, (2S)-1,4-bis[2-(4-chloro-3-fluorophenoxy)acetamido]bicyclo[2.2.2]octan-2-yl 5-(phosphonooxy)pentanoate], for which the concentration in solution (solubility at 2 days) was 645 µM (≈ 458 µg/mL).

In turn, `O=C(COc1ccc(Cl)c(F)c1)NC12CCC(NC(=O)COc3ccc(Cl)c(F)c3)(CC1)[C@@H](OS(=O)(=O)O)C2` [Compound 125, (2S)-1,4-bis[2-(4-chloro-3-fluorophenoxy)acetamido]bicyclo[2.2.2]octan-2-yl hydrogen sulfate] returned a solubility at 2 days of 152 µM.

`O=C(COc1ccc(Cl)c(F)c1)NC12CCC(NC(=O)COc3ccc(Cl)c(F)c3)(CC1)[C@@H](OCOP(=O)(O)O)C2` [Compound 131, ({(2S)-1,4-bis[2-(4-chloro-3-fluorophenoxy)acetamido]bicyclo[2.2.2]octan-2-yl}oxy)methyl dihydrogen phosphate]: the solubility at 2 days was above 1000 µM.

`O=C(COc1ccc(Cl)c(F)c1)NC12CCC(NC(=O)COc3ccc(Cl)c(F)c3)(CC1)[C@@H](OC(=O)NCCOP(=O)(O)O)C2` [Compound 117] registered a solubility at 2 days of 598 µM (≈ 416 µg/mL).

For the origin of these results see US11149043B2 (Calico Life Sciences LLC, priority 2018, dated 2021).
